Test results from patent US12077503B2, “Substituted cyclic amides and their use as herbicides” (FMC CORPORATION, priority 2015, dated 2024).

Assays:
Format in all cases: in vivo
[1] = test system: barnyardgrass (Echinochloa crus-galli); test: Test G Pre-Emergence Protocol; details: Echinochloa crus-galli, pre-emergence, 312 h, evaluated after 13 days; for pest or weed control at 15.625 g/ha: 15.625 g ai/ha, read-out: Barnyard grass damage rating (100=total damage to plant; 0=no damage to plant); for pest or weed control at 62.5 g/ha: 62.5 g ai/ha, 100=total damage to plant, 0=no damage to plant, read-out: plant damage rating, Barnyardgrass; for pest or weed control at 250 g/ha: 250 g ai/ha, read-out: Barnyardgrass damage rating (100=total damage to plant; 0=no damage to plant)
How it was run: (§1)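 Under a 24/16° C day/night regime with 14 h light and 65% humidity, sown pots were sprayed after one day with compound (15.625, 62.5 or 250 g/ha; 50:50 acetone/water, 0.5% Tween 20). Damage was assessed visually 13 days later, 0 to 100.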

corn (Zea mays) [2] = test: Test G Pre-Emergence Protocol; details: Zea mays, pre-emergence, 312 h, evaluated after 13 days; for plant injury at 15.625 g/ha: 15.625 g ai/ha; for plant injury at 15.625 g/ha / plant injury at 250 g/ha: read-out: Corn damage rating (100=total damage to plant; 0=no damage to plant); for plant injury at 62.5 g/ha: 62.5 g ai/ha, 100=total damage to plant, 0=no damage to plant, read-out: plant damage rating, Corn; for plant injury at 250 g/ha: 250 g ai/ha
How it was run: as §1

[3] = test system: giant foxtail (Setaria faberi); test: Test G Pre-Emergence Protocol; details: Setaria faberi, pre-emergence, 312 h, evaluated after 13 days; for pest or weed control at 15.625 g/ha: 15.625 g ai/ha; for pest or weed control at 15.625 g/ha / pest or weed control at 250 g/ha: read-out: Foxtail, Giant damage rating (100=total damage to plant; 0=no damage to plant); for pest or weed control at 62.5 g/ha: 62.5 g ai/ha, 100=total damage to plant, 0=no damage to plant, read-out: plant damage rating, Foxtail, Giant; for pest or weed control at 250 g/ha: 250 g ai/ha
How it was run: as §1

[4] = test system: ivy-leaved morning glory (Ipomoea hederacea); test: Test G Pre-Emergence Protocol; details: Ipomoea, pre-emergence, 312 h, evaluated after 13 days; for pest or weed control at 15.625 g/ha: 15.625 g ai/ha, read-out: Morning-glory, Ivy-leaved damage rating (100=total damage to plant; 0=no damage to plant); for pest or weed control at 62.5 g/ha: 62.5 g ai/ha, 100=total damage to plant, 0=no damage to plant, read-out: plant damage rating, Morningglory, Ivy-leaved; for pest or weed control at 250 g/ha: 250 g ai/ha, read-out: Morningglory, Ivy-leaved damage rating (100=total damage to plant; 0=no damage to plant)
How it was run: as §1

[5] = test system: redroot pigweed (Amaranthus retroflexus); test: Test G Pre-Emergence Protocol; details: Amaranthus retroflexus, pre-emergence, 312 h, evaluated after 13 days; for pest or weed control at 15.625 g/ha: 15.625 g ai/ha; for pest or weed control at 15.625 g/ha / pest or weed control at 250 g/ha: read-out: Pigweed, Redroot damage rating (100=total damage to plant; 0=no damage to plant); for pest or weed control at 62.5 g/ha: 62.5 g ai/ha, 100=total damage to plant, 0=no damage to plant, read-out: plant damage rating, Pigweed, Redroot; for pest or weed control at 250 g/ha: 250 g ai/ha
How it was run: as §1

[6] = test system: velvetleaf (Abutilon theophrasti); test: Test G Pre-Emergence Protocol; details: Abutilon theophrasti, pre-emergence, 312 h, evaluated after 13 days; for pest or weed control at 15.625 g/ha: 15.625 g ai/ha; for pest or weed control at 15.625 g/ha / pest or weed control at 250 g/ha: read-out: Velvetleaf damage rating (100=total damage to plant; 0=no damage to plant); for pest or weed control at 62.5 g/ha: 62.5 g ai/ha, 100=total damage to plant, 0=no damage to plant, read-out: plant damage rating, Velvetleaf; for pest or weed control at 250 g/ha: 250 g ai/ha
How it was run: as §1

[7] = test system: barnyardgrass (Echinochloa crus-galli); test: Test G Post-Emergence Protocol; details: Echinochloa crus-galli, post-emergence, 312 h; for pest or weed control at 15.625 g/ha: 15.625 g ai/ha, evaluated after 13 days (100=total damage to plant; 0=no damage to plant), read-out: Barnyardgrass damage rating; for pest or weed control at 62.5 g/ha: 62.5 g ai/ha, read-out: Barnyardgrass damage rating (100=total damage to plant; 0=no damage to plant); for pest or weed control at 62.5 g/ha / pest or weed control at 250 g/ha: evaluated after 13 days; for pest or weed control at 250 g/ha: 250 g ai/ha, read-out: damage to plant, Barnyardgrass (100=total damage to plant; 0=no damage to plant)
How it was run: (§2)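 Eight days post-sowing, plants received a spray of test compound (acetone/water 50:50, 0.5% Tween 20) at 15.625, 62.5 or 250 g/ha. Glasshouse regime thereafter: 24/16 °C, 14 h light, 65% humidity. Assessment after 13 days on a 0–100 damage scale.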

corn (Zea mays) [8] = test: Test G Post-Emergence Protocol; details: Zea mays, post-emergence, 312 h; for plant injury at 15.625 g/ha: 15.625 g ai/ha, evaluated after 13 days (100=total damage to plant; 0=no damage to plant), read-out: Corn damage rating; for plant injury at 62.5 g/ha: 62.5 g ai/ha, read-out: Corn damage rating (100=total damage to plant; 0=no damage to plant); for plant injury at 62.5 g/ha / plant injury at 250 g/ha: evaluated after 13 days; for plant injury at 250 g/ha: 250 g ai/ha, read-out: damage to plant, Corn (100=total damage to plant; 0=no damage to plant)
How it was run: as §2

[9] = test system: giant foxtail (Setaria faberi); test: Test G Post-Emergence Protocol; details: Setaria faberi, post-emergence, 312 h; for pest or weed control at 15.625 g/ha: 15.625 g ai/ha, evaluated after 13 days (100=total damage to plant; 0=no damage to plant), read-out: Foxtail, Giant damage rating; for pest or weed control at 62.5 g/ha: 62.5 g ai/ha, read-out: Foxtail, Giant damage rating (100=total damage to plant; 0=no damage to plant); for pest or weed control at 62.5 g/ha / pest or weed control at 250 g/ha: evaluated after 13 days; for pest or weed control at 250 g/ha: 250 g ai/ha, read-out: damage to plant, Foxtail, Giant (100=total damage to plant; 0=no damage to plant)
How it was run: as §2

[10] = test system: ivy-leaved morning glory (Ipomoea hederacea); test: Test G Post-Emergence Protocol; details: Ipomoea, post-emergence, 312 h; for pest or weed control at 15.625 g/ha: 15.625 g ai/ha, evaluated after 13 days (100=total damage to plant; 0=no damage to plant), read-out: Morningglory, Ivy-leaved damage rating; for pest or weed control at 62.5 g/ha: 62.5 g ai/ha, read-out: Morningglory, Ivy-leaved damage rating (100=total damage to plant; 0=no damage to plant); for pest or weed control at 62.5 g/ha / pest or weed control at 250 g/ha: evaluated after 13 days; for pest or weed control at 250 g/ha: 250 g ai/ha, read-out: damage to plant, Morningglory, Ivy-leaved (100=total damage to plant; 0=no damage to plant)
How it was run: as §2

[11] = test system: redroot pigweed (Amaranthus retroflexus); test: Test G Post-Emergence Protocol; details: Amaranthus retroflexus, post-emergence, 312 h; for pest or weed control at 15.625 g/ha: 15.625 g ai/ha, evaluated after 13 days (100=total damage to plant; 0=no damage to plant), read-out: Pigweed, Redroot damage rating; for pest or weed control at 62.5 g/ha: 62.5 g ai/ha, read-out: Pigweed, Redroot damage rating (100=total damage to plant; 0=no damage to plant); for pest or weed control at 62.5 g/ha / pest or weed control at 250 g/ha: evaluated after 13 days; for pest or weed control at 250 g/ha: 250 g ai/ha, read-out: damage to plant, Pigweed, Redroot (100=total damage to plant; 0=no damage to plant)
How it was run: as §2

[12] = test system: velvetleaf (Abutilon theophrasti); test: Test G Post-Emergence Protocol; details: Abutilon theophrasti, post-emergence, 312 h; for pest or weed control at 15.625 g/ha: 15.625 g ai/ha, evaluated after 13 days (100=total damage to plant; 0=no damage to plant), read-out: Velvetleaf damage rating; for pest or weed control at 62.5 g/ha: 62.5 g ai/ha, read-out: Velvetleaf damage rating (100=total damage to plant; 0=no damage to plant); for pest or weed control at 62.5 g/ha / pest or weed control at 250 g/ha: evaluated after 13 days; for pest or weed control at 250 g/ha: 250 g ai/ha, read-out: damage to plant, Velvetleaf (100=total damage to plant; 0=no damage to plant)
How it was run: as §2

SMILES | pest or weed control at 15.625 g/ha [1] [%] | pest or weed control at 62.5 g/ha [1] [%] | pest or weed control at 250 g/ha [1] [%] | plant injury at 15.625 g/ha (corn (Zea mays) [2]) [%] | plant injury at 62.5 g/ha (corn (Zea mays) [2]) [%] | plant injury at 250 g/ha (corn (Zea mays) [2]) [%] | pest or weed control at 15.625 g/ha [3] [%] | pest or weed control at 62.5 g/ha [3] [%] | pest or weed control at 250 g/ha [3] [%] | pest or weed control at 15.625 g/ha [4] [%] | pest or weed control at 62.5 g/ha [4] [%] | pest or weed control at 250 g/ha [4] [%] | pest or weed control at 15.625 g/ha [5] [%] | pest or weed control at 62.5 g/ha [5] [%] | pest or weed control at 250 g/ha [5] [%] | pest or weed control at 15.625 g/ha [6] [%] | pest or weed control at 62.5 g/ha [6] [%] | pest or weed control at 250 g/ha [6] [%] | pest or weed control at 15.625 g/ha [7] [%] | pest or weed control at 62.5 g/ha [7] [%] | also measured
CN1C[C@@H](c2cnc(Cl)c(Cl)c2)[C@H](C(=O)Nc2cccc(F)c2F)C1=O (racemic) [Compound 1487] | 30 | 90 | 80 | 10 | 20 | 70 | 80 | 90 | 90 | 0 | 0 | 20 | 0 | 0 | 80 | 0 | 0 | 30 | 50 | 60 | pest or weed control at 250 g/ha [7]: 70%; plant injury at 15.625 g/ha (corn (Zea mays) [8]): 20%; plant injury at 62.5 g/ha (corn (Zea mays) [8]): 60%; plant injury at 250 g/ha (corn (Zea mays) [8]): 70%; pest or weed control at 15.625 g/ha [9]: 60%; pest or weed control at 62.5 g/ha [9]: 70%; pest or weed control at 250 g/ha [9]: 70%; pest or weed control at 15.625 g/ha [10]: 0%; pest or weed control at 62.5 g/ha [10]: 0%; pest or weed control at 250 g/ha [10]: 20%; pest or weed control at 15.625 g/ha [11]: 20%; pest or weed control at 62.5 g/ha [11]: 0%; pest or weed control at 250 g/ha [11]: 30%; pest or weed control at 15.625 g/ha [12]: 0%; pest or weed control at 62.5 g/ha [12]: 0%; pest or weed control at 250 g/ha [12]: 20%
CC(C)c1cc([C@H]2CN(C)C(=O)[C@@H]2C(=O)Nc2cccc(F)c2F)cnn1 (racemic) [Compound 1488] | 0 | 0 | 0 | 0 | 0 | 0 | 0 | 0 | 0 | 0 | 0 | 0 | 0 | 0 | 0 | 0 | 0 | 0 | 0 | 20 | pest or weed control at 250 g/ha [7]: 20%; plant injury at 15.625 g/ha (corn (Zea mays) [8]): 0%; plant injury at 62.5 g/ha (corn (Zea mays) [8]): 10%; plant injury at 250 g/ha (corn (Zea mays) [8]): 0%; pest or weed control at 15.625 g/ha [9]: 0%; pest or weed control at 62.5 g/ha [9]: 0%; pest or weed control at 250 g/ha [9]: 30%; pest or weed control at 15.625 g/ha [10]: 0%; pest or weed control at 62.5 g/ha [10]: 0%; pest or weed control at 250 g/ha [10]: 0%; pest or weed control at 15.625 g/ha [11]: 0%; pest or weed control at 62.5 g/ha [11]: 0%; pest or weed control at 250 g/ha [11]: 0%; pest or weed control at 15.625 g/ha [12]: 0%; pest or weed control at 62.5 g/ha [12]: 0%; pest or weed control at 250 g/ha [12]: 0%
Cc1ccc(NC(=O)[C@@H]2C(=O)N(C)C[C@H]2c2ccc(C(F)(F)F)cc2)nn1 (racemic) [Compound 1543] | 0 | 0 | 0 | 0 | 0 | 0 | 0 | 0 | 0 | 0 | 0 | 0 | 0 | 0 | 0 | 0 | 0 | 0 | 0 | 0 | pest or weed control at 250 g/ha [7]: 0%; plant injury at 15.625 g/ha (corn (Zea mays) [8]): 0%; plant injury at 62.5 g/ha (corn (Zea mays) [8]): 0%; plant injury at 250 g/ha (corn (Zea mays) [8]): 10%; pest or weed control at 15.625 g/ha [9]: 0%; pest or weed control at 62.5 g/ha [9]: 0%; pest or weed control at 250 g/ha [9]: 20%; pest or weed control at 15.625 g/ha [10]: 0%; pest or weed control at 62.5 g/ha [10]: 0%; pest or weed control at 250 g/ha [10]: 30%; pest or weed control at 15.625 g/ha [11]: 0%; pest or weed control at 62.5 g/ha [11]: 0%; pest or weed control at 250 g/ha [11]: 40%; pest or weed control at 15.625 g/ha [12]: 0%; pest or weed control at 62.5 g/ha [12]: 0%; pest or weed control at 250 g/ha [12]: 30%
